Holding throughout (format): physicochemical
Series [1] can be described thus: Solubility test in water (visual check). The following applies: for solubility in water (in words): visual check. The method, then: To a three necked 1 L flask equipped with stirrer and thermometer, 60.0 g (207.4 mmol) of (R)-2-[2-amino-3-(indol-3-yl)propionylamino]-2-methylpropionic acid, which is as synthesized by methods as described herein, e.g., at Examples 6 and 11, or by the method as previously described in U.S. Patent Application Publication No. 2006/0234947, was added to a mixture of 167.0 mL of water and 21.0 mL of concentrated hydrochloric acid, resulting in the formation of a yellowish brown solution. The pH of the solution was set to 5.6 with 53.0 mL of a 20% NaOH solution at 0-5° C. About 30 minutes later, the crystallization started at 0-5° C. The suspension was stirred overnight at 0-5° C. The suspension was filtered on a pre-chilled funnel. As an in-process control, the solubility of a part of the filter cake in water was checked. […] Form II of (R)-2-[2-Amino-3-(indol-3-yl)propionylamino]-2-methylpropionic acid was isolated and dried at 0-5° C. over P2O5.
To a three necked 6 L flask equipped with overhead stirrer, thermometer, and pH meter, 1189.0 g of wet […] from Step 1 was dissolved in a mixture of 1715.0 mL of water and 250.0 mL of concentrated HCl. The mixture was stirred at 5-10° C. and the pH of the solution was adjusted to 5.6 with 665.0 mL of a 20% NaOH solution maintaining the temperature at 5-10° C. After 30 minutes of stirring, the crystallization began. The resulting suspension was stirred at 0-5° C. overnight. The precipitate was collected by filtration. This collected Form II was suspended in 1.2 L of water and heated to 30-35° C. for two hours. At the beginning, the solid partly dissolved, then precipitated again. […] The suspension was cooled to room temperature (20-25° C.), filtered and washed with 400 mL and 800 mL of water, subsequently then dried at 60-65° C. to constant weight.

Series [2] is described as follows: Transition of Form II to Form I / product stability as a function of temperature. The method, then: At a higher temperature (e.g., 40-50° C.) significant degradation of the product is observed. Further, the isolated yield (45%-50% instead of 60%) and the efficiency of the purification are slightly lower (98.9 area %) at −5° C. than at 0-5° C. […] During the filtration step, the thick suspension could be warmed up and partly dissolves Form II of the compound and decreases the yield.
The complete transition from GAL-101 Form II to GAL-101 Form I is detected at room temperature (20-25° C.) within 15 minutes. The transition can start at above 10° C. The transition can be followed by microscope, the large metastable crystals transform to small crystals within a few minutes at ambient temperature (FIGS. 6-14).

Series [3] can be described thus: Transition of Form II to Form I followed by X-ray powder diffraction. The method, then: X-ray powder diffraction (XRPD) patterns were obtained in a Philips model PW 3710 based PW 1050 Bragg-Brentano parafocusing goniometer using CuKa radiation (l=0.15418 nm), graphite monochromator and proportional counter. The XRD scans were digitally recorded in the […] of 3-35deg with a step size of 0.04deg.
Form II was measured at 20-25° C. (long dashed line), then heated at 30-35 for 15 minutes (solid line), then another 60 minutes (dotted line) (FIG. 2). Form I was also measured (short dashed line). According to the measurements, Form II is highly crystalline and strongly oriented (it forms large plates).
The transition of Form II (dark grey line) to Form I (black line) was complete at 50-60° C. within 30 minutes (FIG. 3). The reference diffractogram of Form I is shown in grey.

The nature of series [4]: Microscopy study of the transition of Form II to Form I. Conditions: 30-35° C., polarized light microscope. The method, then: Transition of wet Form II to Form I was observed through a MOTIC BA300 microscope (as shown in FIGS. 6-10) under polarized light. The transition from wet Form II to Form I proceeded rapidly. The large Form II crystals transformed to small crystals at 30-35° C. within 2 minutes. The crystals of Form II are large plates. The observed crystal form explains the observed thixotropic property of the suspension of Form II. Form I consists of uniform rounded crystals.

From patent US11891455B2, “Polymorph form of (r)-2-[2-amino-3-(indol-3-yl)propionylamino]-2- methylpropionic acid and uses thereof” (Galimedix Therapeutics Inc., priority 2019, dated 2024) come the findings set out here.

Peptide text beside a SMILES is read from it. Some results are limits rather than exact numbers.

As for `CC(C)(NC(=O)[C@H](N)Cc1c[nH]c2ccccc12)C(=O)O` [GAL-101 Form I, (R)-2-[2-amino-3-(indol-3-yl)propionylamino]-2-methylpropionic acid] (HELM PEPTIDE1{[dW].[Aib]}$$$$V2.0), the “solubility in water (in words)” value in series [1] (listed as Form I) is on record as “almost insoluble in water”.
`CC(C)(NC(=O)[C@H](N)Cc1c[nH]c2ccccc12)C(=O)O` [GAL-101 Form II, (R)-2-[2-amino-3-(indol-3-yl)propionylamino]-2-methylpropionic acid] (HELM PEPTIDE1{[dW].[Aib]}$$$$V2.0): the “temperature above which the transition Form II to Form I can start” value in series [2] is “above 10 °C”. In addition, the “speed of transformation to Form I (in words)” value in series [2] (above 30° C.) was “very rapidly”. The “time to complete transition from Form II to Form I” value in series [2] (room temperature (20-25° C.)) is no more than 15 min. Further, the “time to complete transition of Form II to Form I (XRPD)” value in series [3] (50-60° C.) is no more than 30 min. Moreover, the “conversion of Form II to Form I in dry state (XRPD)” value in series [3] (dry state, 30-35° C.) is listed as “converts gradually to Form I”. In addition, the “time for large Form II crystals to transform to small crystals (wet Form II to Form I)” value in series [4] was no more than 2 min. Besides, the “water needed to dissolve (water solubility)” value in series [1] (room temperature) is listed as “about 4 volumes of water”. The “solubility in water (in words)” value in series [1] is on record as “high water solubility”; in series [1] (listed as form II), “Immediately dissolving”.
